Experimental data: PubChem BioAssay (NCI)
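Tested at 5 concentrations; 48 h exposure; 96-well plates; endpoints linearly interpolated, else capped at highest concentration. TGI denotes the concentration required for complete inhibition of growth.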 Where a SMILES comes first, the peptide text is derived from it. The star is where a group is joined. Fmoc = O=C(OCC1c2ccccc2-c2ccccc21)*; OBn = c1ccc(CO*)cc1; tBu = CC(C)(C)*

How the values were obtained:
Assay in all cases: NCI tumour cell line growth inhibition, 48 h
[1] = system: 786-0 renal
[2] = system: A498 renal
[3] = system: A549 NSCLC
[4] = system: ACHN renal
[5] = system: BT-549 breast
[6] = system: CAKI-1 renal
[7] = system: CCRF-CEM leukemia
[8] = system: COLO 205 colon
[9] = system: DU-145 prostate
[10] = system: EKVX NSCLC
[11] = system: HCC-2998 colon
[12] = system: HCT-116 colon
[13] = system: HCT-15 colon
[14] = system: HL-60(TB) leukemia
[15] = system: HOP-62 NSCLC
[16] = system: HOP-92 NSCLC
[17] = system: HS 578T breast
[18] = system: HT29 colon
[19] = system: IGROV1 ovarian
[20] = system: K-562 leukemia
[21] = system: KM12 colon
[22] = system: LOX IMVI melanoma
[23] = system: M14 melanoma
[24] = system: MALME-3M melanoma
[25] = system: MCF7 breast
[26] = system: MDA-MB-231 breast
[27] = system: MDA-MB-435
[28] = system: MDA-N
[29] = system: MOLT-4 leukemia
[30] = system: NCI-H226 lung
[31] = system: NCI-H23 lung
[32] = system: NCI-H460 lung
[33] = system: NCI-H522 lung
[34] = system: NCI/ADR-RES ovarian
[35] = system: OVCAR-3 ovarian
[36] = system: OVCAR-4 ovarian
[37] = system: OVCAR-5 ovarian
[38] = system: OVCAR-8 ovarian
[39] = system: PC-3 prostate
[40] = system: RPMI-8226 leukemia
[41] = system: RXF 393 renal
[42] = system: SF-268 CNS
[43] = system: SF-295 CNS
[44] = system: SF-539 CNS
[45] = system: SK-MEL-2 melanoma
[46] = system: SK-MEL-28 melanoma
[47] = system: SK-MEL-5 melanoma
[48] = system: SK-OV-3 ovarian
[49] = system: SN12C renal
[50] = system: SNB-19 CNS
[51] = system: SNB-75 CNS
[52] = system: SR leukemia
[53] = system: SW-620 colon
[54] = system: T-47D breast
[55] = system: TK-10 renal
[56] = system: U251 CNS
[57] = system: UACC-257 melanoma
[58] = system: UACC-62 melanoma
[59] = system: UO-31 renal
[60] = system: DLD-1 colon
[61] = system: DMS 114 small cell lung
[62] = system: DMS 273 small cell lung
[63] = system: LXFL 529 NSCLC
[64] = system: M19-MEL melanoma
[65] = system: SNB-78 CNS
[66] = system: XF 498 CNS
[67] = system: HOP-18 NSCLC
[68] = system: KM20L2 colon

In the case of `CC(OC(C)(C)C)C(NC(=O)OCC1c2ccccc2-c2ccccc21)C(=O)NC(Cc1ccccc1)C(=O)OCc1ccccc1` (centres undefined) (Fmoc-Thr(tBu)-Phe-OBn; configuration not given here), the TGI [1] is reported as greater than 100 µM, the TGI [2] is reported as greater than 100 µM and the TGI [3] is reported as greater than 100 µM. The TGI [4] was greater than 100 µM, the TGI [5] was greater than 100 µM and the TGI [6] was greater than 100 µM. For the same compound, the TGI [7] was greater than 100 µM, the TGI [8] was greater than 100 µM and the TGI [9] was greater than 100 µM. The TGI [10] was greater than 100 µM, the TGI [11] was greater than 100 µM and the TGI [12] was greater than 100 µM. The TGI [13] was greater than 100 µM, the TGI [14] was greater than 100 µM and the TGI [15] was greater than 100 µM. The TGI [16] was greater than 100 µM, the TGI [17] was greater than 100 µM and the TGI [18] was greater than 100 µM. It also gave a TGI [19] greater than 100 µM, a TGI [20] greater than 100 µM and a TGI [21] greater than 100 µM. For the same compound, the TGI [22] was greater than 100 µM, the TGI [23] was greater than 100 µM and the TGI [24] was greater than 100 µM. It also gave a TGI [25] greater than 100 µM, a TGI [26] greater than 100 µM and a TGI [27] greater than 100 µM. For the same compound, the TGI [28] was greater than 100 µM, the TGI [29] was greater than 100 µM and the TGI [30] was greater than 100 µM. The TGI [31] was greater than 100 µM, the TGI [32] was greater than 100 µM and the TGI [33] was greater than 100 µM. The TGI [34] was greater than 100 µM, the TGI [35] was greater than 100 µM and the TGI [36] was greater than 100 µM. For the same compound, the TGI [37] was greater than 100 µM, the TGI [38] was greater than 100 µM and the TGI [39] was greater than 100 µM. The TGI [40] was greater than 100 µM, the TGI [41] was greater than 100 µM and the TGI [42] was greater than 100 µM. It also gave a TGI [43] greater than 100 µM, a TGI [44] greater than 100 µM and a TGI [45] greater than 100 µM. For the same compound, the TGI [46] was greater than 100 µM, the TGI [47] was greater than 100 µM and the TGI [48] was greater than 100 µM. It also gave a TGI [49] greater than 100 µM, a TGI [50] greater than 100 µM and a TGI [51] greater than 100 µM. The TGI [52] was greater than 100 µM, the TGI [53] was greater than 100 µM and the TGI [54] was greater than 100 µM. The TGI [55] was greater than 100 µM, the TGI [56] was greater than 100 µM and the TGI [57] was greater than 100 µM. The TGI [58] was greater than 100 µM and the TGI [59] was greater than 100 µM.

For `COC(=O)C1C(=O)NC2(C)CC1c1ccccc1O2` (centres undefined), the TGI [1] was greater than 100 µM, the TGI [2] was greater than 100 µM and the TGI [3] was greater than 100 µM. The TGI [4] was greater than 100 µM, the TGI [6] was greater than 100 µM and the TGI [7] was greater than 100 µM. It also gave a TGI [60] greater than 100 µM, a TGI [61] greater than 100 µM and a TGI [62] greater than 100 µM. It also gave a TGI [11] greater than 100 µM, a TGI [12] greater than 100 µM and a TGI [13] greater than 100 µM. The TGI [14] was greater than 100 µM, the TGI [15] was greater than 10 µM and the TGI [16] was greater than 100 µM. It also gave a TGI [18] greater than 100 µM, a TGI [19] greater than 100 µM and a TGI [20] greater than 100 µM. It also gave a TGI [21] greater than 100 µM, a TGI [22] greater than 100 µM and a TGI [63] greater than 100 µM. It also gave a TGI [23] greater than 10 µM, a TGI [64] greater than 100 µM and a TGI [24] greater than 100 µM. For the same compound, the TGI [29] was greater than 100 µM, the TGI [30] was greater than 100 µM and the TGI [31] was greater than 100 µM. It also gave a TGI [32] greater than 100 µM, a TGI [33] greater than 100 µM and a TGI [35] greater than 10 µM. For the same compound, the TGI [36] was greater than 100 µM, the TGI [37] was greater than 100 µM and the TGI [38] was greater than 100 µM. It also gave a TGI [40] greater than 100 µM, a TGI [41] greater than 100 µM and a TGI [42] greater than 100 µM. For the same compound, the TGI [43] was greater than 100 µM, the TGI [44] was greater than 100 µM and the TGI [45] was greater than 100 µM. The TGI [46] was greater than 100 µM, the TGI [47] was greater than 100 µM and the TGI [48] was greater than 100 µM. For the same compound, the TGI [49] was greater than 100 µM, the TGI [50] was greater than 100 µM and the TGI [51] was greater than 100 µM. The TGI [65] was greater than 100 µM, the TGI [52] was greater than 100 µM and the TGI [53] was greater than 100 µM. For the same compound, the TGI [55] was greater than 100 µM, the TGI [56] was greater than 100 µM and the TGI [57] was greater than 100 µM. The TGI [58] was greater than 100 µM, the TGI [59] was greater than 100 µM and the TGI [66] was greater than 100 µM.

Work on `CCOc1ccc(N=Nc2c(-c3ccccc3)nn(C(=O)CC(=O)Nc3ccccc3Cl)c2-c2ccccc2)cc1` yielded a TGI [1] greater than 100 µM, a TGI [3] greater than 100 µM and a TGI [4] greater than 100 µM. The TGI [6] was greater than 100 µM, the TGI [7] was greater than 100 µM and the TGI [8] was greater than 100 µM. For the same compound, the TGI [60] was greater than 100 µM, the TGI [61] was greater than 100 µM and the TGI [62] was greater than 100 µM. For the same compound, the TGI [10] was greater than 100 µM, the TGI [11] was greater than 100 µM and the TGI [12] was greater than 100 µM. It also gave a TGI [14] greater than 100 µM, a TGI [67] greater than 100 µM and a TGI [15] greater than 100 µM. For the same compound, the TGI [16] was greater than 100 µM, the TGI [18] was greater than 100 µM and the TGI [19] was greater than 100 µM. For the same compound, the TGI [20] was greater than 100 µM, the TGI [21] was greater than 100 µM and the TGI [68] was greater than 100 µM. For the same compound, the TGI [22] was greater than 100 µM, the TGI [63] was greater than 100 µM and the TGI [23] was greater than 100 µM. It also gave a TGI [64] greater than 100 µM, a TGI [24] greater than 100 µM and a TGI [29] greater than 100 µM. For the same compound, the TGI [30] was greater than 100 µM, the TGI [31] was greater than 100 µM and the TGI [32] was greater than 100 µM. For the same compound, the TGI [33] was greater than 100 µM, the TGI [35] was greater than 100 µM and the TGI [36] was greater than 100 µM. For the same compound, the TGI [37] was greater than 100 µM, the TGI [38] was greater than 100 µM and the TGI [40] was greater than 100 µM. It also gave a TGI [41] greater than 100 µM, a TGI [42] greater than 100 µM and a TGI [43] greater than 100 µM. For the same compound, the TGI [44] was greater than 100 µM, the TGI [45] was greater than 100 µM and the TGI [46] was greater than 100 µM. It also gave a TGI [47] greater than 100 µM, a TGI [48] greater than 100 µM and a TGI [49] greater than 100 µM. The TGI [50] was greater than 100 µM, the TGI [51] was 90.6 µM and the TGI [65] was greater than 100 µM. For the same compound, the TGI [52] was greater than 100 µM, the TGI [53] was greater than 100 µM and the TGI [55] was greater than 100 µM. It also gave a TGI [56] greater than 100 µM, a TGI [57] greater than 100 µM and a TGI [58] greater than 100 µM. It also gave a TGI [59] greater than 100 µM and a TGI [66] greater than 100 µM.
